Reference: patent publication US8741836B2, “Polypeptides” (Novo Nordisk A/S, priority 2011, dated 2014)
Starred links: 1 amine or outer side, 2 acyl side, 3 side chain; linkers in the order of their positions; H or OH if unused. Positions of bridges follow the written chain, without caps; N, C: chain ends. Residues, ends and D or L forms follow the SMILES beside them. Groups on a side chain read outwards from the residue. *: point of attachment. C20 diacid = O=C(O)CCCCCCCCCCCCCCCCCCC(=O)*; C18 diacid = O=C(O)CCCCCCCCCCCCCCCCC(=O)*; γGlu = O=C(O)[C@H](CCC(=O)[*:2])N[*:1]

Assays:
[1] = Assay (III) ThT fibrillation assay for physical stability; type: physicochemical; conditions: for ThT pH 4.0 lag time: pH 4.0, ThT fibrillation assay
Method in brief: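 Freshly prepared, pH-adjusted formulations with 1 μM ThT incubated at 37 °C under 960 rpm orbital shaking (1 mm), fluorescence (ex 444, em 485 nm) read every 20 min. […] Peptide content before and after measured by reverse-phase HPLC against pramlintide standard.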

[2] = tested on: ad libitum fed rat; experiment: Assay (I) efficacy testing on appetite (food intake) using an ad libitum fed rat model; type: in vivo, Sprague Dawley (SD) rats
Method in brief: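 Ad libitum fed Sprague Dawley rats, 200-250 g, singly housed on reversed light cycle, got one ip, po or sc dose of 0.01-3 mg/kg just before lights off; groups of 5-8 with vehicle control. Food intake recorded hourly for 7 h, then at 24 h and sometimes 48 h; Grubbs outliers excluded.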

Q: Which “ThT pH 4.0 lag time” value [1] does the source give for CC[C@H](C)[C@H](NC(=O)[C@@H]1CCCN1C(=O)CNC(=O)[C@H](Cc1ccccc1)NC(=O)[C@H](CC(N)=O)NC(=O)[C@H](CC(N)=O)NC(=O)[C@H](CO)NC(=O)[C@H](CO)NC(=O)[C@H](Cc1c[nH]cn1)NC(=O)[C@H](Cc1c[nH]cn1)NC(=O)[C@H](CC(C)C)NC(=O)[C@H](Cc1ccccc1)NC(=O)[C@H](CCC(=O)O)NC(=O)[C@H](C)NC(=O)[C@H](CC(C)C)NC(=O)[C@H](CCCNC(=N)N)NC(=O)[C@H](CCC(N)=O)NC(=O)[C@@H](NC(=O)[C@H](C)NC(=O)[C@@H]1CSSC[C@H](NC(=O)[C@@H](N)CCCCNC(=O)CC[C@H](NC(=O)CCCCCCCCCCCCCCCCCCC(=O)O)C(=O)O)C(=O)N[C@@H](CC(N)=O)C(=O)N[C@@H]([C@@H](C)O)C(=O)N[C@@H](C)C(=O)N[C@@H]([C@@H](C)O)C(=O)N1)[C@@H](C)O)C(=O)N[C@@H](CC(C)C)C(=O)N1CCC[C@H]1C(=O)N1CCC[C@H]1C(=O)N[C@H](C(=O)N[C@@H](CC(N)=O)C(=O)N[C@H](C(=O)NCC(=O)N[C@@H](CO)C(=O)N[C@@H](Cc1c[nH]cn1)C(=O)N[C@H](C(=O)N[C@@H](Cc1ccc(O)cc1)C(N)=O)[C@@H](C)O)C(C)C)[C@@H](C)O [Example 87, N-epsilon1-[(S)-4-Carboxy-4-(19-carboxynonadecanoylamino)butyryl]-[Glu14,His17,His35]-pramlintide] (H-K([γGlu-C20 diacid])CNTATCATQRLAEFLHHSSNNFGPILPPTNVGSHTY-NH2; disulfide 2-7 (inferred); C-terminus assumed) here?
A: 25 h

Q: What about the “Food intake reduction 0-24 h 3 nmol/kg (%)” value ([2]; 0-24 h) of the same molecule?
A: 66%

Q: And the “Food intake reduction 24-48 h 3 nmol/kg (%)” value ([2]; 24-48 h)?
A: 47%

Q: What does the source list for CC[C@H](C)[C@H](NC(=O)[C@@H]1CCCN1C(=O)CNC(=O)[C@H](Cc1ccccc1)NC(=O)[C@H](CC(N)=O)NC(=O)[C@H](CC(N)=O)NC(=O)[C@H](CO)NC(=O)[C@H](CO)NC(=O)[C@H](Cc1c[nH]cn1)NC(=O)[C@H](CCCNC(=N)N)NC(=O)[C@H](CC(C)C)NC(=O)[C@H](Cc1ccccc1)NC(=O)[C@H](CCC(=O)O)NC(=O)[C@H](C)NC(=O)[C@H](CC(C)C)NC(=O)[C@H](CCCNC(=N)N)NC(=O)[C@H](CCC(N)=O)NC(=O)[C@@H](NC(=O)[C@H](C)NC(=O)[C@@H]1CSSC[C@H](NC(=O)[C@H](Cc2c[nH]cn2)NC(=O)[C@H](Cc2c[nH]cn2)NC(=O)[C@H](Cc2c[nH]cn2)NC(=O)CC[C@H](NC(=O)CCCCCCCCCCCCCCCCCCC(=O)O)C(=O)O)C(=O)N[C@@H](CC(N)=O)C(=O)N[C@@H]([C@@H](C)O)C(=O)N[C@@H](C)C(=O)N[C@@H]([C@@H](C)O)C(=O)N1)[C@@H](C)O)C(=O)N[C@@H](CC(C)C)C(=O)N1CCC[C@H]1C(=O)N1CCC[C@H]1C(=O)N[C@H](C(=O)N[C@@H](CC(N)=O)C(=O)N[C@H](C(=O)NCC(=O)N[C@@H](CO)C(=O)N[C@@H](CC(N)=O)C(=O)N[C@H](C(=O)N[C@@H](Cc1ccc(O)cc1)C(N)=O)[C@@H](C)O)C(C)C)[C@@H](C)O [Example 12, N-alpha-[(S)-4-Carboxy-4-(19-carboxynonadecanoylamino)butyryl]-His-His-[His1,Glu14,Arg17]-pramlintide] ({C20 diacid-γGlu}-HHHCNTATCATQRLAEFLRHSSNNFGPILPPTNVGSNTY-NH2; disulfide 4-9 (inferred))?
A: ThT pH 4.0 lag time [1]: >45 h; Food intake reduction 0-24 h 30 nmol/kg (%) ([2]; 30 nmol/kg, 0-24 h): 70%; Food intake reduction 24-48 h 30 nmol/kg (%) ([2]; 30 nmol/kg, 24-48 h): 45%

Q: Which “ThT pH 4.0 lag time” value [1] does the source give for CC[C@H](C)[C@H](NC(=O)[C@@H]1CCCN1C(=O)CNC(=O)[C@H](Cc1ccccc1)NC(=O)[C@H](CC(N)=O)NC(=O)[C@H](CC(N)=O)NC(=O)[C@H](CO)NC(=O)[C@H](CO)NC(=O)[C@H](Cc1c[nH]cn1)NC(=O)[C@H](CCCNC(=N)N)NC(=O)[C@H](CC(C)C)NC(=O)[C@H](Cc1ccccc1)NC(=O)[C@H](CCC(=O)O)NC(=O)[C@H](C)NC(=O)[C@H](CC(C)C)NC(=O)[C@H](CCCNC(=N)N)NC(=O)[C@H](CCC(N)=O)NC(=O)[C@@H](NC(=O)[C@H](C)NC(=O)[C@@H]1CSSC[C@H](NC(=O)[C@H](CCCCN)NC(=O)[C@H](Cc2c[nH]cn2)NC(=O)CC[C@H](NC(=O)CCCCCCCCCCCCCCCCC(=O)O)C(=O)O)C(=O)N[C@@H](CC(N)=O)C(=O)N[C@@H]([C@@H](C)O)C(=O)N[C@@H](C)C(=O)N[C@@H]([C@@H](C)O)C(=O)N1)[C@@H](C)O)C(=O)N[C@@H](CC(C)C)C(=O)N1CCC[C@H]1C(=O)N1CCC[C@H]1C(=O)N[C@H](C(=O)N[C@@H](CC(N)=O)C(=O)N[C@H](C(=O)NCC(=O)N[C@@H](CO)C(=O)N[C@@H](Cc1c[nH]cn1)C(=O)N[C@H](C(=O)N[C@@H](Cc1ccc(O)cc1)C(N)=O)[C@@H](C)O)C(C)C)[C@@H](C)O [Example 71, N-alpha-[(S)-4-Carboxy-4-(17-carboxyheptadecanoylamino)butyryl]-His-[Glu14,Arg17,His35]-pramlintide] ({C18 diacid-γGlu}-HKCNTATCATQRLAEFLRHSSNNFGPILPPTNVGSHTY-NH2; disulfide 3-8 (inferred)) here?
A: >45 h

Q: What about the “Food intake reduction 0-24 h 3 nmol/kg (%)” value ([2]; 0-24 h) of the same molecule?
A: 10%

Q: What about the “Food intake reduction 24-48 h 3 nmol/kg (%)” value ([2]; 24-48 h) of the same molecule?
A: 0%

Q: What does the source list for CC[C@H](C)[C@H](NC(=O)[C@@H]1CCCN1C(=O)CNC(=O)[C@H](Cc1ccccc1)NC(=O)[C@H](CO)NC(=O)[C@H](CO)NC(=O)[C@H](CO)NC(=O)[C@H](CO)NC(=O)[C@H](CCCNC(=N)N)NC(=O)[C@H](Cc1c[nH]cn1)NC(=O)[C@H](CC(C)C)NC(=O)[C@H](Cc1ccccc1)NC(=O)[C@H](CCC(=O)O)NC(=O)[C@H](C)NC(=O)[C@H](CC(C)C)NC(=O)[C@H](CCCNC(=N)N)NC(=O)[C@H](CCC(N)=O)NC(=O)[C@@H](NC(=O)[C@H](C)NC(=O)[C@@H]1CSSC[C@H](NC(=O)[C@H](Cc2c[nH]cn2)NC(=O)CC[C@H](NC(=O)CCCCCCCCCCCCCCCCCCC(=O)O)C(=O)O)C(=O)N[C@@H](CC(N)=O)C(=O)N[C@@H]([C@@H](C)O)C(=O)N[C@@H](C)C(=O)N[C@@H]([C@@H](C)O)C(=O)N1)[C@@H](C)O)C(=O)N[C@@H](CC(C)C)C(=O)N1CCC[C@H]1C(=O)N1CCC[C@H]1C(=O)N[C@H](C(=O)N[C@@H](CC(=O)O)C(=O)N[C@H](C(=O)NCC(=O)N[C@@H](CO)C(=O)N[C@@H](CC(=O)O)C(=O)N[C@H](C(=O)N[C@@H](Cc1ccc(O)cc1)C(N)=O)[C@@H](C)O)C(C)C)[C@@H](C)O [Example 9, N-alpha-[(S)-4-Carboxy-4-(19-carboxynonadecanoylamino)butyryl]-[His1,Glu14,His17,Arg18,Ser21,Ser22,Asp31,Asp35]-pramlintide] ({C20 diacid-γGlu}-HCNTATCATQRLAEFLHRSSSSFGPILPPTDVGSDTY-NH2; disulfide 2-7)?
A: ThT pH 4.0 lag time [1]: >45 h; Food intake reduction 0-24 h 3 nmol/kg (%) ([2]; 0-24 h): 39%; Food intake reduction 24-48 h 3 nmol/kg (%) ([2]; 24-48 h): 32%

Q: Which results are given for CC[C@H](C)[C@H](NC(=O)[C@@H]1CCCN1C(=O)CNC(=O)[C@H](Cc1ccccc1)NC(=O)[C@H](CC(N)=O)NC(=O)[C@H](CC(N)=O)NC(=O)[C@H](CO)NC(=O)[C@H](CO)NC(=O)[C@H](Cc1c[nH]cn1)NC(=O)[C@H](CCCNC(=N)N)NC(=O)[C@H](CC(C)C)NC(=O)[C@H](Cc1ccccc1)NC(=O)[C@H](CCC(=O)O)NC(=O)[C@H](C)NC(=O)[C@H](CC(C)C)NC(=O)[C@H](CCCNC(=N)N)NC(=O)[C@H](CCC(N)=O)NC(=O)[C@@H](NC(=O)[C@H](C)NC(=O)[C@@H]1CSSC[C@H](NC(=O)[C@H](Cc2c[nH]cn2)NC(=O)CNC(=O)CC[C@H](NC(=O)CCCCCCCCCCCCCCCCCCC(=O)O)C(=O)O)C(=O)N[C@@H](CC(N)=O)C(=O)N[C@@H]([C@@H](C)O)C(=O)N[C@@H](C)C(=O)N[C@@H]([C@@H](C)O)C(=O)N1)[C@@H](C)O)C(=O)N[C@@H](CC(C)C)C(=O)N1CCC[C@H]1C(=O)N1CCC[C@H]1C(=O)N[C@H](C(=O)N[C@@H](CC(N)=O)C(=O)N[C@H](C(=O)NCC(=O)N[C@@H](CO)C(=O)N[C@@H](CC(N)=O)C(=O)N[C@H](C(=O)N1CCC[C@H]1C(N)=O)[C@@H](C)O)C(C)C)[C@@H](C)O [Example 89, N-alpha-[(S)-4-Carboxy-4-(19-carboxynonadecanoylamino)butyryl]-Gly-[His1,Glu14,Arg17,Pro37]-pramlintide] ({C20 diacid-γGlu}-GHCNTATCATQRLAEFLRHSSNNFGPILPPTNVGSNTP-NH2; disulfide 3-8 (inferred))?
A: ThT pH 4.0 lag time (physical stability in fibrillogenesis assay) [1]: >45 h; ThT pH 4.0 lag time [1]: >45 h; Food intake reduction 0-24 h 3 nmol/kg (%) ([2]; 0-24 h): 42%; Food intake reduction 24-48 h 3 nmol/kg (%) ([2]; 24-48 h): 23%

Q: Which “ThT pH 4.0 lag time (physical stability in fibrillogenesis assay)” value [1] does the source give for CC[C@H](C)[C@H](NC(=O)[C@@H]1CCCN1C(=O)CNC(=O)[C@H](Cc1ccccc1)NC(=O)[C@H](CC(N)=O)NC(=O)[C@H](CC(N)=O)NC(=O)[C@H](CO)NC(=O)[C@H](CO)NC(=O)[C@H](Cc1c[nH]cn1)NC(=O)[C@H](Cc1c[nH]cn1)NC(=O)[C@H](CC(C)C)NC(=O)[C@H](Cc1ccccc1)NC(=O)[C@H](CCC(=O)O)NC(=O)[C@H](C)NC(=O)[C@H](CC(C)C)NC(=O)[C@H](CCCNC(=N)N)NC(=O)[C@H](CCC(N)=O)NC(=O)[C@@H](NC(=O)[C@H](C)NC(=O)[C@@H]1CSSC[C@H](NC(=O)[C@H](CCCCN)NC(=O)CC[C@H](NC(=O)CCCCCCCCCCCCCCCCC(=O)O)C(=O)O)C(=O)N[C@@H](CC(N)=O)C(=O)N[C@@H]([C@@H](C)O)C(=O)N[C@@H](C)C(=O)N[C@@H]([C@@H](C)O)C(=O)N1)[C@@H](C)O)C(=O)N[C@@H](CC(C)C)C(=O)N1CCC[C@H]1C(=O)N1CCC[C@H]1C(=O)N[C@H](C(=O)N[C@@H](CC(N)=O)C(=O)N[C@H](C(=O)NCC(=O)N[C@@H](CO)C(=O)N[C@@H](Cc1c[nH]cn1)C(=O)N[C@H](C(=O)N[C@@H](Cc1ccc(O)cc1)C(N)=O)[C@@H](C)O)C(C)C)[C@@H](C)O [Example 59, N-alpha-[(S)-4-Carboxy-4-(17-carboxyheptadecanoylamino)butyryl]-[Glu14,His17,His35]-pramlintide] ({C18 diacid-γGlu}-KCNTATCATQRLAEFLHHSSNNFGPILPPTNVGSHTY-NH2; disulfide 2-7) here?
A: >45 h

Q: What about the “ThT pH 4.0 lag time” value [1] of the same molecule?
A: >45 h

Q: What about the “Food intake reduction 0-24 h 3 nmol/kg (%)” value ([2]; 0-24 h) of the same molecule?
A: 59%

Q: And the “Food intake reduction 24-48 h 3 nmol/kg (%)” value ([2]; 24-48 h)?
A: 27%
